“Also recorded” adds a separate entry of the source.
Experiments:
[1] = system: β-galactosidase from jack beans; test: Inhibition of β-galactosidase cleavage of Galβ4GlcNAcβ3Galβ4Glc; format: biochemical; details: 55 mM inhibitor, 100 mU enzyme, 50 mM sodium citrate pH 4.0, 37° C., 8 h; no unreacted substrate without inhibitor
From the text: Inhibition of β-galactosidase enzyme by D-galactono-1,4-lactone (Sigma, St Louis, USA). β-galactosidase from jack beans (EC 3.2.1.23, Sigma, St Louis, USA) is used to cleave terminal galactose from model oligosaccharide Galβ4GlcNAcβ3Galβ4Glc (Sigma, St Louis, USA). It is noted that the transition state analog galactosidase inhibitor is active against many galactosidases (Huber and Brockbank, 1987, actual active form is probably D-galactono-1,5-lactone) and that the jack bean β-galactosidase cleaves similarily other type 2 lactosamines such as e.g. Galβ4GlcNAcβ3Galβ4GlcNAcβ3Galβ4Glc, specific conditions are needed to cleave Galβ3GlcNAc-sequences or glycospingolipids. In Reaction 1, 25 nmol of Galβ4GlcNAcβ3Galβ4Glc is incubated with 100 mU of β-galactosidase from jack beans in-45 μl of 50 mM sodium citrate pH 4.0, at 37° C., for 8 h. Reaction 2 has the same composition, but contains additionally 55 mM D-galactono-1,4-lactone and it is incubated under the same condition for 8 h. The major products from Reaction 1 are Gal and GlcNAcβ3Galβ4Glc, while unreacted substrate is generally not observable by HPLC and mass spectrometric analysis, while Reaction 2 contains besides these typically more than 50% of uncleaved Galβ4GlcNAcβ3Galβ4Glc.

Helicobacter pylori [2] = test: TLC bacterial overlay assay: binding of 35S-labeled Helicobacter pylori to glycosphingolipids; details: for Helicobacter pylori binding activity (in words): TLC overlay; for binding frequency for Helicobacter pylori: strain 032, total number of plates about 100; for binding compared between Helicobacter pylori strains: strains 17875, 002 and 032
[3] = biological target: T1, sialidase from Vibrio cholerae (Vibrio cholerae serotype O1, UniProt P0C6E9); test: Inhibition of sialidase cleavage of Neu5Acα3Galβ4Glc; format: biochemical; details: saturating concentrations
T1 construct: purchased Behringwerke, Marburg, Germany

Helicobacter pylori [4] = details: human gastrointestinal cell lines (Simon et al., 1999); cited from earlier work
Helicobacter pylori [5] = details: rhesus monkey (Mysore et al., 2000); cited from earlier work
[6] = dilution series, semi-quantitative TLC overlay

T1 sequence (P0C6E9 25-781): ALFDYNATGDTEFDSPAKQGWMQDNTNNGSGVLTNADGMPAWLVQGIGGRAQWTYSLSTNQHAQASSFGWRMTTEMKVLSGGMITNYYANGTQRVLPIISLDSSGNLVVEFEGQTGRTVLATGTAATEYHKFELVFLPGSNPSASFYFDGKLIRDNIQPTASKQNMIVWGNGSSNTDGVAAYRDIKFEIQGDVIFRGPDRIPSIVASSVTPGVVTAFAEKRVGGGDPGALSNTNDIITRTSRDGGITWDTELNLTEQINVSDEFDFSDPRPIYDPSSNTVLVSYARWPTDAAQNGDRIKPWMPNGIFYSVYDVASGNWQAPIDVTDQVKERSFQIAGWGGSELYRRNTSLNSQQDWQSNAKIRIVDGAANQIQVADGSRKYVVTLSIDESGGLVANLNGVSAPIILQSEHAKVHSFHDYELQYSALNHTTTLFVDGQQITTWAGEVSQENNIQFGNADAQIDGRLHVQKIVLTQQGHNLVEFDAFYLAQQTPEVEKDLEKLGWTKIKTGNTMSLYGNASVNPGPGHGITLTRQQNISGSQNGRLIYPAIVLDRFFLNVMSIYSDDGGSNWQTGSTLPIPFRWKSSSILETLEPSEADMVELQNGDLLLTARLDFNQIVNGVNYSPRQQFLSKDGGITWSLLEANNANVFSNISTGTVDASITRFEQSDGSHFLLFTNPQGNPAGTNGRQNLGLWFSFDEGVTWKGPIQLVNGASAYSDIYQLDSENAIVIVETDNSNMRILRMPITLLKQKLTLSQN

Compound | Helicobacter pylori binding activity (in words) (Helicobacter pylori [2]) | also measured
O=C1O[C@@H]([C@H](O)CO)[C@H](O)[C@H]1O [D-galactono-1,4-lactone] |  | uncleaved Galβ4GlcNAcβ3Galβ4Glc [1]: more than 50%
CCCCCCCCCCCCCCCCc1ccc(NC[C@H](O)[C@@H](O)[C@H](O[C@@H]2O[C@H](CO)[C@H](O)[C@H](O[C@@H]3O[C@H](CO)[C@@H](O[C@@H]4O[C@H](CO)[C@H](O)[C@H](O[C@@H]5O[C@H](CO)[C@@H](O)[C@H](O)[C@H]5NC(C)=O)[C@H]4O)[C@H](O)[C@H]3NC(C)=O)[C@H]2O)[C@H](O)CO)cc1 [GlcNAcβ3Galβ4GlcNAcβ3Galβ4Glc(red)-HDA] | observable binding activity | 
CC(=O)N[C@H]1[C@H]([C@H](O)[C@H](O)CO)OC(C(=O)O)=C[C@@H]1O [Neu5Ac2en, 2,3-anhydro-2-deoxy-N-acetylneuraminic acid] |  | inhibition of the enzyme (in words) [3]: very effectively inhibited
CC(=O)N[C@H]1[C@H]([C@H](O)[C@H](O)CO)O[C@@](O[C@H]2[C@@H](O)[C@@H](CO)O[C@@H](O[C@H]3[C@H](O)[C@@H](O)C(O)O[C@@H]3CO)[C@@H]2O)(C(=O)O)C[C@@H]1O (stereo partly shown) [Sialyl-lactose] |  | inhibition of Helicobacter pylori binding to cell lines (Helicobacter pylori [4]): inhibits Helicobacter pylori binding; efficacy in animal model of the infection (Helicobacter pylori [5]): effective
Fucα2Galβ4GlcNAcβ3Galβ4Glcβ1Cer [No. 18] | absence of binding | 
GalNAcα3(Fucα2)Galβ4GlcNAcβ3Galβ4Glcβ1Cer [No. 22] | non-binding | 
GalNAcβ3Galα3Galβ4GlcNAcβ3Galβ4Glcβ1Cer [No. 25] | non-binding | 
GalNAcβ3Galβ4GlcNAcβ3Galβ4Glcβ1Cer [No. 11] | binding was also found | 
Galα3(Fucα2)Galβ4GlcNAcβ3Galβ4Glcβ1Cer [No. 23] | non-binding | 
Galα3Galβ4GlcNAcβ3Galβ4Glcβ1Cer [No. 13] | binding-active | 
Galα4Galβ4GlcNAcβ3Galβ4Glcβ1Cer [No. 15] | absence of binding | 
Galβ4GlcNAcβ3Galβ4GlcNAcβ3Galβ4Glcβ1Cer [No. 21] | displayed binding activity | amount in which glycolipid bound Helicobacter pylori (Helicobacter pylori [2]; [6]): ~0.2 nmoles of glycolipid/spot; binding frequency for Helicobacter pylori (Helicobacter pylori [2]): ~90%; binding compared between Helicobacter pylori strains (Helicobacter pylori [2]): similar
Galβ4GlcNAcβ3Galβ4Glcβ1Cer [No. 5] | displayed binding activity | amount in which glycolipid bound Helicobacter pylori (Helicobacter pylori [2]; [6]): ~0.3 nmoles of glycolipid/spot; binding compared between Helicobacter pylori strains (Helicobacter pylori [2]): similar
Galβ4GlcβCer [diglycosylceramide] | displayed binding activity | 
GlcNAcβ3Galβ4GlcNAcβ3Galβ4Glcβ1Cer [No. 10] |  | Helicobacter pylori binding activity (in words) (Helicobacter pylori [2]; listed as pentaglycosylceramide): strong activity; also recorded: displayed binding activity; also recorded: highly active; amount giving a positive response on TLC plates (Helicobacter pylori [2]; dilution series, semi-quantitative TLC overlay, mean value from 7 experiments): 0.039 nmol/spot; binding frequency for Helicobacter pylori (Helicobacter pylori [2]): ~90%; binding compared between Helicobacter pylori strains (Helicobacter pylori [2]): similar
GlcNAcβ3Galβ4Glcβ1Cer [No. 1] | inactive | 
NeuAcα3GalNAcβ3Galβ4GlcNAcβ3Galβ4Glcβ1Cer [No. 24] | non-binding | 
NeuGcα3Galβ4GlcNAcβ3Galβ4GlcNAcβ3Galβ4Glcβ1Cer [No. 27] |  | binding by Helicobacter pylori isolates (Helicobacter pylori [2]; about 60 isolates tested): bound by most Helicobacter pylori isolates
maltoheptaose(red)-HDA [maltoheptaose/red)-HDA, reference compound] | totally inactive | 
